Tests used:
[1] = test system: Long-Evans rat pups (term neonatal HIE model); experiment: Endothelial cells count (lectin staining) at P30; assay type: in vivo; settings: HI, not significant
Procedure: Using the third slide prepared for each animal, an immunohistochemistry was used to assess the endothelial cells count. Sections were labeled with lectin (biotinylated isolectin B4) (Sigma-Aldrich: L2140, St-Louis, Mo., USA) (dilution 20 μg/mL in 0.1M tris-buffered saline [pH 7.4] and 0.5% Triton X-100, incubation time 2 hours at room temperature) (Springer M L et al., 2010). To detect lectin binding, the sections were incubated with streptavidin Alexa Fluor® 350 conjugate (Molecular Probes®, Life Technologies: S11249, Carlsbad, Calif., USA) dilution 1:300 in tris-buffered saline, incubation time 2 hours at room temperature (Ndode-Ekane X E et al., 2010). Then, these sections were rinsed with tris-buffered saline and cover slipped with Vectashield Mounting media containing 4,6-diamidino-2-phenylindole (DAPI) (Vector Laboratories: H1200, Burlingame, Calif., USA) to visualize cell nuclei (Ndode-Ekane X E et al., 2010; Hallene K L et al., 2006). The endothelial cells count was assessed as per previously described methods (Hallene K L et al., 2006, Iwai M et al., 2007; Noguchi T et al., 2008; Rigau V et al., 2007; Wintermark P et al., 2013). Cells co-labeled with lectin and DAPI were identified as endothelial cells (Springer M L et al., 2010; Hallene K L et al., 2006). To estimate the density of microvessels, single immunoreactive endothelial cells were counted as individual microvessels; endothelial staining in large vessels with tunica media were disregarded in the microvessel counts (Hallene K L et al., 2006, Iwai M et al., 2007; Noguchi T et al., 2008; Rigau V et al., 2007; Wintermark P et al., 2013; Shaikh H et al., 2015). […] One investigator took pictures of the respective fields of view at 10× magnification.

[2] = test system: Long-Evans rat pups (term neonatal HIE model); assay type: in vivo; settings: HI rat pups
Text: The experiments were run in a dark environment (below 20 lux of illumination). The equipment consists of a 1.3 m-long glass plate with a dim fluorescent light coming from the side and beamed into the glass. The light reflected downwards by the rats' paws as they contact the glass floor is captured by a high-speed video camera placed under the walkway, and then transformed into a digital image ([…] et al., 2006; Hetze S et al., 2012; Lubjuhn J et al., 2009, […] et al., 2013, Wang Y et al., 2008). The walkway was 90 mm wide. The camera was positioned 40 cm below the walkway, and automatic detection settings were applied. The rat pups walked spontaneously at their own speed; the mother was systematically placed in the goal box to motivate the rat pups to run towards it. An intensity threshold was set to 0.1, the camera gain was set to 20, and the maximum allowed speed variation was set to 60%. A minimum of three quality runs per rat pups were acquired. Only uninterrupted runs were saved for analysis; runs, where animals turned or walked backwards, were excluded, and the animal got another try. […] Step sequence regularity index is a percent index for the degree of interlimb coordination during the gait, as measured by the number of normal step sequence patterns, multiplied by the number of paws and divided by the number of paw placements. […]

Compound: CCCc1nn(C)c2c(=O)[nH]c(-c3cc(S(=O)(=O)N4CCN(C)CC4)ccc3OCC)nc12 [sildenafil]
- endothelial cells number, median (IQR) ([1]; sildenafil 2 mg/kg): 230 (158; 273) endothelial cells/mm^2
- endothelial cells number, median (IQR) ([1]; sildenafil 10 mg/kg (first mention, medium-dose)): 196 (157; 225) endothelial cells/mm^2
- endothelial cells number, median (IQR) ([1]; sildenafil 10 mg/kg as printed (second mention, third of low/medium/high)): 193 (151; 217) endothelial cells/mm^2
- print length (gait) ([2]; high-dose of sildenafil): showed an increase
- neurological deficits as measured by the gait analysis ([2]; sildenafil even in small doses): improvement of the neurological deficits
